Molecules are shown by their SMILES. Counter-ions that a name gives are not always drawn. Where only a bound is given, the exact number is not on record here.

In the test the target is T1, human recombinant HPK1 (Homo sapiens, UniProt Q92918).
T1 construct: purchased BPS Bioscience
The experiment in a line: Inhibitory activity against human recombinant HPK1 (TR-FRET). Type of test: biochemical. To be noted: ULight-p70S6K peptide, ATP at Km, room temperature, 1 hour, 0.32 to 1000 nM compound. The method, boiled down: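 Recombinant human HPK1 with ULight-p70S6K peptide and ATP at Km, 1 h at room temperature in HEPES pH 7.4 buffer with Mg2+, Mn2+, EGTA, DTT; compounds 0.32–1000 nM final. EDTA stop, Eu-anti-phosphopeptide TR-FRET read (665 nm); IC50 from % inhibition versus DMSO, binned A–D at 10, 50, 100 nM.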

T1 sequence (Q92918 whole entry): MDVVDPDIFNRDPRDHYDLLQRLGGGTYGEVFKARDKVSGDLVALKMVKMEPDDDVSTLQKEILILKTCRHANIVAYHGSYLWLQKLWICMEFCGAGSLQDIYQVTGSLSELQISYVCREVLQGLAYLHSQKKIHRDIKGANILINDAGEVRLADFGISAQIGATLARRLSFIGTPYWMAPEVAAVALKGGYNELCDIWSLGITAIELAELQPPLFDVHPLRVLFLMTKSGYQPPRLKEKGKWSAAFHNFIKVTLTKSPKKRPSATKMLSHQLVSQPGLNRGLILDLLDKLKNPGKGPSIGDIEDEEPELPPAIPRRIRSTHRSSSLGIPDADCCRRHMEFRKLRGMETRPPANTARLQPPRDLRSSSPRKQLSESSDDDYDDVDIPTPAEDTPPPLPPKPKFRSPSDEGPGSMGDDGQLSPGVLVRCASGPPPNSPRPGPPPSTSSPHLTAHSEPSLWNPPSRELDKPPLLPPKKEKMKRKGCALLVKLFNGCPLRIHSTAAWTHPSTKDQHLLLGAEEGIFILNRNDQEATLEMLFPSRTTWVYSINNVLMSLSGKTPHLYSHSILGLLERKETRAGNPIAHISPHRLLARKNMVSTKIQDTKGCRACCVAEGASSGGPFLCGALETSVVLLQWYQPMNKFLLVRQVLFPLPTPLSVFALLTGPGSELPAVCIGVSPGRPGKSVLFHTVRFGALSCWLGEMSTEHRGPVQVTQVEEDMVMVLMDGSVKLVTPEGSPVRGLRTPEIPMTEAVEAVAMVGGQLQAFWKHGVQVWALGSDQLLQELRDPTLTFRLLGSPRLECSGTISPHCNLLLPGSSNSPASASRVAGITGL

In general, IC50 refers to the point on the concentration scale where inhibition reaches its midpoint. With `COc1cccc(F)c1-c1nccc(Nc2cc(N3CCC[C@H](N)C3)c(-c3ccc(NC(C)=O)cc3)cn2)n1` [Example 279, (S)-N-(4-(4-(3-aminopiperidin-1-yl)-6-((2-(2-fluoro-6-methoxyphenyl)pyrimidin-4-yl)amino)pyridin-3-yl)phenyl)acetamide hydrochloride], the 50% inhibitory concentration (IC50) was no more than 0.01 µM.

On to `COc1cccc(F)c1-c1nccc(Nc2cc(N3CCC[C@H](N)C3)c(-c3cc(C)c(OC)c(C)c3)cn2)n1` [Example 285, (S)-N-(4-(3-aminopiperidin-1-yl)-5-(4-methoxy-3,5-dimethylphenyl)pyridin-2-yl)-2-(2-fluoro-6-methoxyphenyl)pyrimidin-4-amine hydrochloride], for which the IC50 is no more than 0.01 µM.

Consider `COc1cccc(F)c1-c1nccc(Nc2cc(N3CCC[C@H](N)C3)c(-c3cnn(CCN4CCCC4)c3)cn2)n1` [Example 163, (S)-N-(4-(3-aminopiperidin-1-yl)-5-(1-(2-(pyrrolidin-1-yl)ethyl)-1H-pyrazol-4-yl)pyridin-2-yl)-2-(2-fluoro-6-methoxyphenyl)pyrimidin-4-amine hydrochloride], for which the IC50 was no more than 0.01 µM.

With `O[C@H]1CCCN(c2cc(Nc3ccnc(-c4cnn5ccccc45)n3)ncc2-c2cnn(C3CCOCC3)c2)C1` [Example 27, (S)-1-(2-((2-(pyrazolo[1,5-a]pyridin-3-yl)pyrimidin-4-yl)amino)-5-(1-(tetrahydro-2H-pyran-4-yl)-1H-pyrazol-4-yl)pyridin-4-yl)piperidin-3-ol], the half-maximal inhibitory concentration (IC50) lay within 0.01 to 0.05 µM.

In the case of `COc1cccc(F)c1-c1nc(Nc2cc(N3CCC[C@H](O)C3)c(C(=O)N[C@@H]3CC[C@@H](O)C3)cn2)ccc1[N+](=O)[O-]` [Example 194, 6-((6-(2-fluoro-6-methoxyphenyl)-5-nitropyridin-2-yl)amino)-N-((1R,3R)-3-hydroxycyclopentyl)-4-((S)-3-hydroxypiperidin-1-yl)nicotinamide], the IC50 is no more than 0.01 µM.

As for `COc1cccc(F)c1-c1nccc(Nc2cc(N3CCC[C@H](N)C3)c(-c3ccc(N(C)C)nc3)cn2)n1` [Example 118, (S)-4-(3-aminopiperidin-1-yl)-N^6-(2-(2-fluoro-6-methoxyphenyl)pyrimidin-4-yl)-N^6′,N^6′-dimethyl-[3,3′-bipyridin]-6,6′-diamine hydrochloride], the IC50 is no more than 0.01 µM.

Turning to `COc1cc(F)cc(F)c1-c1nc(Nc2cc(N3CCC[C@H](O)C3)c(-c3cnn(C(F)F)c3)cn2)ccc1[N+](=O)[O-]` [Example 183, (3S)-1-(2-((6-(2,4-difluoro-6-methoxyphenyl)-5-nitropyridin-2-yl)amino)-5-(1-(difluoromethyl)-1H-pyrazol-4-yl)pyridin-4-yl)piperidin-3-ol], the half-inhibitory concentration (IC50) is no more than 0.01 µM.

`COc1cccc(F)c1-c1nc(Nc2cc(N3CCC[C@H](N)C3)c(C#Cc3cnn(C(F)(F)F)c3)cn2)ccc1F` [Example 114, 4-((S)-3-aminopiperidin-1-yl)-N-(5-fluoro-6-(2-fluoro-6-methoxyphenyl)pyridin-2-yl)-5-((1-(trifluoromethyl)-1H-pyrazol-4-yl)ethynyl)pyridin-2-amine hydrochloride]: the 50% inhibitory concentration (IC50) was no more than 0.01 µM.

As to `COc1cccc(F)c1-c1cccc(Nc2cc(N3CCC[C@H](O)C3)c(-c3cnn(C4CCOCC4)c3)cn2)n1` [Example 35, (S)-1-(2-((6-(2-fluoro-6-methoxyphenyl)pyridin-2-yl)amino)-5-(1-(tetrahydro-2H-pyran-4-yl)-1H-pyrazol-4-yl)pyridin-4-yl)piperidin-3-ol], the IC50 is no more than 0.01 µM.

For the compound `COc1cccc(F)c1-c1nccc(Nc2cc(N3CCC[C@H](N)C3)c(-c3cnn([C@@H]4CCOC4)c3)cn2)n1` [Example 299, N-(4-((S)-3-aminopiperidin-1-yl)-5-(1-((R)-tetrahydrofuran-3-yl)-1H-pyrazol-4-yl)pyridin-2-yl)-2-(2-fluoro-6-methoxyphenyl)pyrimidin-4-amine hydrochloride], the IC50 is no more than 0.01 µM.

`N[C@H]1CCCN(c2cc(Nc3ccnc(-c4cc5nccnc5cc4F)n3)ncc2C#Cc2cnn(C(F)(F)F)c2)C1` [Example 115, (S)-N-(4-(3-aminopiperidin-1-yl)-5-((1-(trifluoromethyl)-1H-pyrazol-4-yl)ethynyl)pyridin-2-yl)-2-(7-fluoroquinoxalin-6-yl)pyrimidin-4-amine hydrochloride]: the IC50 was no more than 0.01 µM.

As for `COc1cccc(F)c1-c1nc(Nc2cc(N3CCC[C@H](O)C3)c(-c3cnn(C(F)F)c3)cn2)ccc1C(N)=O` [Example 142, 6-((5-(1-(difluoromethyl)-1H-pyrazol-4-yl)-4-((S)-3-hydroxypiperidin-1-yl)pyridin-2-yl)amino)-2-(2-fluoro-6-methoxyphenyl)nicotinamide], the IC50 was no more than 0.01 µM.

For the compound `COc1cccc(F)c1-c1nccc(Nc2cc(N3CCC[C@H](N)C3)c(-c3ccc(N4CCNCC4)nc3)cn2)n1` [Example 241, (S)-4-(3-aminopiperidin-1-yl)-N-(2-(2-fluoro-6-methoxyphenyl)pyrimidin-4-yl)-6′-(piperazin-1-yl)-[3,3′-bipyridin]-6-amine hydrochloride], the IC50 was no more than 0.01 µM.

For `COc1cccc(F)c1-c1nccc(Nc2cc(N3C[C@@H](N)C[C@H](F)C3)c(-c3cnn(CC(F)(F)F)c3)cn2)n1` [Example 332, N-(4-((3S,5S)-3-amino-5-fluoropiperidin-1-yl)-5-(1-(2,2,2-trifluoroethyl)-1H-pyrazol-4-yl)pyridin-2-yl)-2-(2-fluoro-6-methoxyphenyl)pyrimidin-4-amine hydrochloride], the IC50 is no more than 0.01 µM.

Consider `COc1cccc(F)c1-c1nccc(Nc2cc(N3CCC[C@H](N)C3)c(-c3cnn([C@H]4CCNC4)c3)cn2)n1` [Example 239, N-(4-((S)-3-aminopiperidin-1-yl)-5-(1-((S)-pyrrolidin-3-yl)-1H-pyrazol-4-yl)pyridin-2-yl)-2-(2-fluoro-6-methoxyphenyl)pyrimidin-4-amine hydrochloride], for which the half-maximal inhibitory concentration (IC50) was no more than 0.01 µM.

`COc1cccc(F)c1-c1nccc(Nc2cc(N3CC[C@@H](F)[C@H](N)C3)c(-c3cnn(C(F)F)c3)cn2)n1` [Example 208, N-(4-((3R,4R)-3-amino-4-fluoropiperidin-1-yl)-5-(1-(difluoromethyl)-1H-pyrazol-4-yl)pyridin-2-yl)-2-(2-fluoro-6-methoxyphenyl)pyrimidin-4-amine hydrochloride]: the IC50 is no more than 0.01 µM.

Take `COc1cccc(F)c1-c1nccc(Nc2cc(N3CCC[C@H](N)C3)c(-c3cnn(C4CC(C)(C)OC(C)(C)C4)c3)cn2)n1` [Example 269, (S)-N-(4-(3-aminopiperidin-1-yl)-5-(1-(2,2,6,6-tetramethyltetrahydro-2H-pyran-4-yl)-1H-pyrazol-4-yl)pyridin-2-yl)-2-(2-fluoro-6-methoxyphenyl)pyrimidin-4-amine hydrochloride]: the half-maximal inhibitory concentration (IC50) was no more than 0.01 µM.

As for `COc1cccc(F)c1-c1nc(Nc2cc(N3CCC[C@H](O)C3)c(C#Cc3cnn(CC(F)F)c3)cn2)ccc1[N+](=O)[O-]` [Example 221, (3S)-1-(5-((1-(2,2-difluoroethyl)-1H-pyrazol-4-yl)ethynyl)-2-((6-(2-fluoro-6-methoxyphenyl)-5-nitropyridin-2-yl)amino)pyridin-4-yl)piperidin-3-ol], the IC50 is no more than 0.01 µM.

On to `COc1cccc(F)c1-c1nccc(Nc2cc(N3CCC[C@H](N)C3)c(-c3ccc4c(c3)OCC(=O)N4)cn2)n1` [Example 260, (S)-7-(4-(3-aminopiperidin-1-yl)-6-((2-(2-fluoro-6-methoxyphenyl)pyrimidin-4-yl)amino)pyridin-3-yl)-2H-benzo[b][1,4]oxazin-3(4H)-one hydrochloride], for which the half-inhibitory concentration (IC50) was no more than 0.01 µM.

In the case of `COc1cc(F)cc(F)c1-c1nccc(Nc2cc(N3CC[C@@H](F)[C@H](N)C3)c(-c3cnn(C(C)C)c3)cn2)n1` [Example 339, N-(4-((3R,4R)-3-amino-4-fluoropiperidin-1-yl)-5-(1-isopropyl-1H-pyrazol-4-yl)pyridin-2-yl)-2-(2,4-difluoro-6-methoxyphenyl)pyrimidin-4-amine hydrochloride], the half-inhibitory concentration (IC50) was no more than 0.01 µM.

Take `COc1cccc(F)c1-c1nc(Nc2cc(N3CCC[C@H](O)C3)c(-c3cnn(C4CCOCC4)c3)cn2)ccc1C#N` [Example 59, 2-(2-fluoro-6-methoxyphenyl)-6-((4-((S)-3-hydroxypiperidin-1-yl)-5-(1-(tetrahydro-2H-pyran-4-yl)-1H-pyrazol-4-yl)pyridin-2-yl)amino)nicotinonitrile]: the 50% inhibitory concentration (IC50) is no more than 0.01 µM.

As for `COc1cccc(F)c1-c1nccc(Nc2cc(N3CCC[C@H](O)C3)c(-c3ccc(C(=O)N4CCC(O)CC4)nc3)cn2)n1` [Example 38, (S)-(6′-((2-(2-fluoro-6-methoxyphenyl)pyrimidin-4-yl)amino)-4′-(3-hydroxypiperidin-1-yl)-[3,3′-bipyridin]-6-yl)(4-hydroxypiperidin-1-yl)methanone], the IC50 was no more than 0.01 µM.

Regarding `COc1cc(F)cc(F)c1-c1nc(Nc2cc(N3CCC[C@H](O)C3)c(-c3cnn(CC(F)F)c3)cn2)ccc1N` [Example 226, (3S)-1-(2-((5-amino-6-(2,4-difluoro-6-methoxyphenyl)pyridin-2-yl)amino)-5-(1-(2,2-difluoroethyl)-1H-pyrazol-4-yl)pyridin-4-yl)piperidin-3-ol], the IC50 is no more than 0.01 µM.

For the compound `COc1cccc(F)c1-c1nccc(Nc2cc(N3CCC[C@H](N)C3)c(-c3cnn(CC(F)(F)F)c3)cn2)n1` [Example 78, (S)-N-(4-(3-aminopiperidin-1-yl)-5-(1-(2,2,2-trifluoroethyl)-1H-pyrazol-4-yl)pyridin-2-yl)-2-(2-fluoro-6-methoxyphenyl)pyrimidin-4-amine hydrochloride], the half-inhibitory concentration (IC50) was no more than 0.01 µM.

On to `COc1cccc(F)c1-c1nc(Nc2cc(N3CCC[C@H](O)C3)c(C(=O)N[C@@H]3CC[C@H](O)C3)cn2)ccc1N` [Example 202, 6-((5-amino-6-(2-fluoro-6-methoxyphenyl)pyridin-2-yl)amino)-N-((1R,3S)-3-hydroxycyclopentyl)-4-((S)-3-hydroxypiperidin-1-yl)nicotinamide], for which the half-inhibitory concentration (IC50) is no more than 0.01 µM.

Values taken from patent US20260347338A1, “PYRIMIDINE/PYRIDINE DERIVATIVES OR SALTS THEREOF AND PHARMACEUTICAL COMPOSITIONS COMPRISING THE SAME” (YUHAN CORPORATION, priority 2023, published 2026).
